From US8524696B2, “Water-soluble compositions of bioactive lipophilic compounds” (priority 1999, dated 2013)

Experiments:
[1] = test system: Human teratocarcinoma NT2; experiment: Protection against hypoxia, cell viability by trypan blue exclusion; format: cell-based; conditions: 10 mg/ml as PTS formulation, 3 days; 17.5 hours anaerobic, glucose-free
Protocol: The flasks were sealed in an anaerobic chamber containing Gas Pak Plus gas generator envelopes and were incubated in the anaerobic conditions at 37° C. for 17.5 hours in glucose-free medium. Following the hypoxic treatment the cells were placed again in the complete medium (with and without CoQ10 or vitamin E) and were analysed either immediately (time 0) or were cultured for the additional 24 hr under the normoxic conditions. Cell viability was measured by trypan blue exclusion assay. […]

[2] = test system: spontaneously hypertensive rats (SHR); experiment: Ischemia/reperfusion, middle cerebral artery occlusion model (MCAO), TTC staining; format: in vivo, rat; conditions: CoQ10 treatment postischemically
[3] = Systemic release of vitamin E following administration of PTS (plasma alpha-tocopherol by HPLC); format: in vivo, Sprague Dawley male rats; conditions: for Concentration of α-tocopherol in rat blood plasma: PTS 50 mg/kg
Protocol: PTS, dissolved in water (50 mg/ml), was administered to Sprague Dawley male rats (300-350 g) either orally or intravenously at a dose of 50 mg/kg body weight. Heparinized blood samples were collected at 0, 3, 8 and 24 hr following PTS administration. Blood plasma samples were obtained and analyzed for the content of alpha-tocopherol using an HPLC method using a Supercosil DB column and a mobile phase of ethanol:methanol (80:20 v/v) at a flow rate of 1 ml/min. Beckman System Karat software was used for data quantification.

[4] = test system: red blood cells (RBC) isolated from Balb/c mice; experiment: In vitro haemolysis of red blood cells (RBC); format: cell-based, mouse; conditions: 0.3% Triton X-100, 1 h at 37° C., taken as 100% haemolysis (Table 17 reference column)
[5] = Storage stability of water-soluble compositions and their aqueous solutions; format: physicochemical; conditions: in water or saline; refrigerated or frozen as stated

COC1=C(OC)C(=O)C(C/C=C(\C)CC/C=C(\C)CC/C=C(\C)CC/C=C(\C)CC/C=C(\C)CC/C=C(\C)CC/C=C(\C)CC/C=C(\C)CC/C=C(\C)CCC=C(C)C)=C(C)C1=O [CoQ10, Coenzyme Q10]
percentage of death during the 24 hr recovery period from hypoxia [1]: reduced by half
protective effects against ischemia-induced tissue damage [2]: clearly evident

polyoxyethanyl-α-tocopheryl sebacate [PTS]
Concentration of α-tocopherol in rat blood plasma ([3]; Intravenous administration, 3 hours): 18.48 ± 2.40 (n = 3) μg/ml
Concentration of α-tocopherol in rat blood plasma ([3]; Intravenous administration, 8 hours): 11.19 ± 3.11 (n = 3) μg/ml
Concentration of α-tocopherol in rat blood plasma ([3]; Intravenous administration, 24 hours): 10.59 ± 1.48 (n = 3) μg/ml
Concentration of α-tocopherol in rat blood plasma ([3]; Oral administration, 3 hours): 8.65 ± 1.40 (n = 3) μg/ml
Concentration of α-tocopherol in rat blood plasma ([3]; Oral administration, 8 hours): 9.33 ± 2.10 (n = 3) μg/ml
Concentration of α-tocopherol in rat blood plasma ([3]; Oral administration, 24 hours): 8.31 ± 0.60 (n = 3) μg/ml
plasma content of α-tocopherol after PTS (systemic conversion to vitamin E) ([3]; oral or intravenous PTS, rat): Elevated

Triton X-100
Percentage of lysed Cells [4]: 100.0%

CC1=C(/C=C/C(C)=C/C=C/C(C)=C/C=C/C=C(C)/C=C/C=C(C)/C=C/C2=C(C)C(=O)[C@@H](O)CC2(C)C)C(C)(C)C[C@H](O)C1=O [Astaxanthin]
stability of aqueous solutions [5]: remained stable for several months

Cc1c(C)c2c(c(C)c1O)CC[C@@](C)(CCC[C@H](C)CCC[C@H](C)CCCC(C)C)O2 [Vitamin E, α-(+)-tocopherol]
percentage of death during the 24 hr recovery period from hypoxia [1]: reduced by half
